Positions of bridges follow the written chain, without caps; N, C: chain ends. Residues, ends and D or L forms follow the SMILES beside them. Groups on a side chain read outwards from the residue. Chains are numbered I, II in the order given. *: point of attachment. Acetyl(C-α-L-Fucp) = C[C@@H]1O[C@@H](CC(=O)*)[C@@H](O)[C@H](O)[C@@H]1O
Legend:
Staphylococcus aureus [1] = experiment: Antibiofilm activity against methicillin-resistant Staphylococcus aureus BAA-1707; format: functional
Staphylococcus aureus [2] = experiment: Antibiofilm activity against methicillin-resistant Staphylococcus aureus isolate 2; format: functional
Pseudomonas aeruginosa [3] = experiment: Antibiofilm activity against Pseudomonas aeruginosa; format: functional, organism-based
[4] = biological target: Fucose-binding lectin PA-IIL (Pseudomonas aeruginosa (strain ATCC 15692 / DSM 22644 / CIP 104116 / JCM14847 / LMG 12228 / 1C / PRS 101 / PAO1), UniProt Q9HYN5); experiment: Inhibition of biotinylated polymeric fucose binding to Pseudomonas aeruginosa LecB expressed in Escherichia coli BL21(DE3) preincubated for 1 hr followed by biotinylated polymeric fucose addition and measured after 1 hr
Chain of Fucose-binding lectin PA-IIL (Q9HYN5 whole entry): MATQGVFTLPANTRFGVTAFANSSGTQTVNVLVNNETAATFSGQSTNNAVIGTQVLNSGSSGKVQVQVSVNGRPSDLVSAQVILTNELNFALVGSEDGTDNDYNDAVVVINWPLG

Sortase A = biological target: T1, Sortase A (Staphylococcus aureus, UniProt Q9S446); experiment: Inhibition of Staphylococcus aureus SrtA
T1 sequence (Q9S446 whole entry): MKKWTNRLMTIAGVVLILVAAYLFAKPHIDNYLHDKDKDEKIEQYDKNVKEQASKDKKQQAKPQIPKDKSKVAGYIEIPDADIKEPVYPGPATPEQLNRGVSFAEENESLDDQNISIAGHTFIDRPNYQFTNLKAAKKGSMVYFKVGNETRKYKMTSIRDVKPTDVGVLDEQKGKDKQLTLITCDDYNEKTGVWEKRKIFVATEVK

Staphylococcus aureus [5] = experiment: Antibiofilm activity against Staphylococcus aureus at 100 uM relative to control; format: functional
Enterococcus faecalis = experiment: Antibiofilm activity against Enterococcus faecalis ATCC 29212; format: functional
Staphylococcus aureus [6] = experiment: Antibiofilm activity against Staphylococcus aureus BAA-1026; format: functional
Staphylococcus aureus [7] = experiment: Antibiofilm activity against methicillin-resistant Staphylococcus aureus; format: functional, organism-based; settings: Staphylococcus aureus
Acinetobacter baumannii = experiment: Antibiofilm activity against Acinetobacter baumannii preformed biofilms; format: functional, organism-based
Pseudomonas aeruginosa [8] = experiment: Antibiofilm activity against Pseudomonas aeruginosa PAO1 assessed as inhibition of biofilm dispersion; format: functional, organism-based
Pseudomonas aeruginosa [9] = experiment: Antibiofilm activity against Pseudomonas aeruginosa PA14 assessed as inhibition of biofilm dispersion; format: functional, organism-based
Staphylococcus aureus [10] = experiment: Antibiofilm activity against methicillin-resistant Staphylococcus aureus BAA-1685; format: functional, organism-based
Staphylococcus aureus [11] = experiment: Antibiofilm activity against methicillin-resistant Staphylococcus aureus BAA-1770; format: functional, organism-based
Staphylococcus aureus [12] = experiment: Antibiofilm activity against methicillin-resistant Staphylococcus aureus ATCC 43300; format: functional, organism-based
[13] = system: Staphylococcus epidermidis; experiment: Antibiofilm activity against Staphylococcus epidermidis DSM 3269 at 1.5 ug/ml relative to control; format: functional
[14] = system: Staphylococcus epidermidis; experiment: Antibiofilm activity against Staphylococcus epidermidis RP62A at 1.5 ug/ml relative to control; format: functional
Staphylococcus aureus [15] = experiment: Antibiofilm activity against Staphylococcus aureus isolate 702 at 1.5 ug/ml relative to control; format: functional
Staphylococcus aureus [16] = experiment: Antibiofilm activity against Staphylococcus aureus ATCC 25923 at 1.5 ug/ml relative to control; format: functional
Staphylococcus aureus [17] = experiment: Antibiofilm activity against Staphylococcus aureus ATCC 29213 at 1.5 ug/ml relative to control; format: functional
Staphylococcus aureus [18] = experiment: Antibiofilm activity against Staphylococcus aureus isolate 657 at 1.5 ug/ml relative to control; format: functional
[19] = system: Staphylococcus epidermidis; experiment: Antibiofilm activity against Staphylococcus epidermidis at 25 ug/ml relative to control; format: functional
Staphylococcus aureus [20] = experiment: Antibiofilm activity against Staphylococcus aureus ATCC 29213 at 25 ug/ml relative to control; format: functional
Staphylococcus aureus [21] = experiment: Antibiofilm activity against methicillin-resistant Staphylococcus aureus ATCC BAA-44; format: functional, organism-based
Staphylococcus aureus [22] = experiment: Antibiofilm activity against Staphylococcus aureus ATCC 29213; format: functional, organism-based

Cc1ccc2c(Br)cc(Br)c(O)c2n1 [BROQUINALDOL]
MBEC (Staphylococcus aureus [1]): 93 µM | MBEC (Staphylococcus aureus [2]): 188 µM

CC[C@H](C)[C@H](NC(=O)[C@H](Cc1cnc[nH]1)NC(=O)[C@H](CCCCNC(=O)[C@@H](NC(=O)[C@H](CCCCN)NC(=O)[C@H](Cc1ccccc1)NC(=O)[C@H](CCCCNC(=O)[C@H](CC(C)C)NC(=O)[C@@H]1CCCN1C(=O)[C@H](CCCCN)NC(=O)C[C@@H]1O[C@@H](C)[C@@H](O)[C@@H](O)[C@@H]1O)NC(=O)[C@H](CC(C)C)NC(=O)[C@@H]1CCCN1C(=O)[C@H](CCCCN)NC(=O)C[C@@H]1O[C@@H](C)[C@@H](O)[C@@H](O)[C@@H]1O)[C@@H](C)CC)NC(=O)[C@@H](NC(=O)[C@H](CCCCN)NC(=O)[C@H](Cc1ccccc1)NC(=O)[C@H](CCCCNC(=O)[C@H](CC(C)C)NC(=O)[C@@H]1CCCN1C(=O)[C@H](CCCCN)NC(=O)C[C@@H]1O[C@@H](C)[C@@H](O)[C@@H](O)[C@@H]1O)NC(=O)[C@H](CC(C)C)NC(=O)[C@@H]1CCCN1C(=O)[C@H](CCCCN)NC(=O)C[C@@H]1O[C@@H](C)[C@@H](O)[C@@H](O)[C@@H]1O)[C@@H](C)CC)C(N)=O (I: {Acetyl(C-α-L-Fucp)}-KPLK([Leu-Pro-Lys-Acetyl(C-α-L-Fucp)])FKIKHI-NH2 / II: {Acetyl(C-α-L-Fucp)}-KPLK([Leu-Pro-Lys-Acetyl(C-α-L-Fucp)])FKI; amide I:8-II:C)
IC50 (Pseudomonas aeruginosa [3]): 10 µM | IC50 [4]: 0.14 µM

CC(=O)/C(=N\Nc1ccc([N+](=O)[O-])cc1)C(=O)O
IC50 (Sortase A): 50 to 92 µM | Activity (Staphylococcus aureus [5]): 39.2 - 68.3%

CC(=O)/C(=N\Nc1ccc(Cl)c(Cl)c1)C(=O)O
IC50 (Sortase A): 50 to 92 µM | Activity (Staphylococcus aureus [5]): 39.2 - 68.3%

Cc1sc(-c2ccc(-c3csc(-c4ccccc4)n3)cc2)nc1-c1ccccc1
MBEC (Enterococcus faecalis): 4 µg/mL | MBEC (Staphylococcus aureus [6]): 1000 µg/mL

Clc1ccc(-c2csc(-c3ccc(-c4csc(-c5ccccc5)n4)cc3)n2)cc1
MBEC (Enterococcus faecalis): 16 µg/mL | MBEC (Staphylococcus aureus [6]): >1000 µg/mL

CCCc1ccc(-c2[nH]c(N)nc2CCCCCc2cn(C/C(C)=C/c3ccccc3)nn2)cc1
IC50 (Staphylococcus aureus [7]): 1.42 µM | IC50 (Acinetobacter baumannii): 11.3 µM

CCCCc1ccc(C(=O)NCCn2cc(CCCCc3[nH]c(N)nc3-c3ccc4c(c3)OCO4)nn2)cc1
IC50 (Staphylococcus aureus [7]): 3.7 µM

CCCCCCCCCCNC(=O)CCCc1c[nH]c(N)n1
IC50 (Pseudomonas aeruginosa [8]): 8 µM | IC50 (Pseudomonas aeruginosa [9]): 6 µM

NC(=O)c1cc(-c2csc(-c3ccc(-c4csc(-c5ccccc5)n4)cc3)n2)ccc1O
MBEC (Enterococcus faecalis): 8 µg/mL | MBEC (Staphylococcus aureus [6]): 250 µg/mL

CCCCCc1ccc(C(=O)NCCn2cc(CCCCCc3c[nH]c(NCc4ccc(CCCC)cc4)n3)nn2)cc1
IC50 (Staphylococcus aureus [10]): 5.5 µM | IC50 (Staphylococcus aureus [11]): 5.9 µM | IC50 (Staphylococcus aureus [12]): 4.4 µM

O=C(c1cc(Br)ccc1O)c1[nH]c(Br)c(Cl)c1Br
Activity [13]: >60% | Activity [14]: >60% | Activity (Staphylococcus aureus [15]): >60% | Activity (Staphylococcus aureus [16]): >60% | Activity (Staphylococcus aureus [17]): >60% | Activity (Staphylococcus aureus [18]): >60%

O=C(c1cc(Cl)cc(Cl)c1O)c1[nH]c(Cl)c(Cl)c1Cl
Activity [13]: >60% | Activity [14]: >60% | Activity (Staphylococcus aureus [15]): >60% | Activity (Staphylococcus aureus [16]): >60% | Activity (Staphylococcus aureus [17]): >60% | Activity (Staphylococcus aureus [18]): >60%

CCCCCCc1ccc(NC(=O)CCn2cc(C[C@@]34CNC[C@@H]3Nc3ccccc34)nn2)cc1
IC50 (Staphylococcus aureus [7]): 3.4 µM

Cc1nn(C)c([N-]C(=O)c2ccc(Cl)cc2Cl)c1[N+]#N
Activity [19]: 69 - 96% | Activity (Staphylococcus aureus [20]): 69 - 96%

c1ccc(-c2csc(-c3ccc(-c4csc(-c5ccccc5)n4)cc3)n2)cc1
MBEC (Enterococcus faecalis): 2 µg/mL | MBEC (Staphylococcus aureus [6]): 1000 µg/mL

N#Cc1ccc(-c2csc(-c3ccc(-c4csc(-c5ccccc5)n4)cc3)n2)cc1
MBEC (Enterococcus faecalis): 2 µg/mL | MBEC (Staphylococcus aureus [6]): 250 µg/mL

COc1cc(N/N=C(\C(C)=O)C(=O)O)cc(OC)c1OC
IC50 (Sortase A): 50 to 92 µM | Activity (Staphylococcus aureus [5]): 39.2 - 68.3%

CC(=O)/C(=N\Nc1ccccc1)C(=O)O
IC50 (Sortase A): 50 to 92 µM | Activity (Staphylococcus aureus [5]): 39.2 - 68.3%

CCCCOc1ccc(Br)c(/C=C(\C)Cn2cc(CCCCCc3c[nH]c(N)n3)nn2)c1F
EC50 (Staphylococcus aureus [7]): 4.5 to 9.8 µM | EC50 (Acinetobacter baumannii): 44.7 to 59.6 µM

O=C1NC(C(Cl)(Cl)Cc2ccccc2)O/C1=C\c1ccc(C(F)(F)F)cc1 (stereo not drawn)
IC50 (Staphylococcus aureus [21]): 1.2 µM

O=C(c1cc(Cl)cc(Cl)c1O)c1[nH]c(Br)c(Br)c1Br
Activity [13]: >60% | Activity [14]: >60% | Activity (Staphylococcus aureus [15]): >60% | Activity (Staphylococcus aureus [16]): >60% | Activity (Staphylococcus aureus [17]): >60% | Activity (Staphylococcus aureus [18]): >60%

Cc1cc(C(=O)/C(=N\Nc2ccc(Cl)c(Cl)c2)C(=O)O)no1
IC50 (Staphylococcus aureus [22]): 0.8 µM

O=C(Oc1c(Br)cc(Br)c2nc3ccccc3nc12)c1ccco1
IC50 (Staphylococcus aureus [7]): 1.4 to 2.9 µM

COc1ccc(-c2csc(-c3ccc(-c4csc(-c5ccccc5)n4)cc3)n2)cc1
MBEC (Enterococcus faecalis): 4 µg/mL | MBEC (Staphylococcus aureus [6]): 62 µg/mL

— ChEMBL document CHEMBL4325854, “Synthetic small molecules as anti-biofilm agents in the struggle against antibiotic resistance” (Eur J Med Chem, 2019)
